# Laboratory results as given in publication PMC4438233, “Antibacterial effects of Traditional Chinese Medicine monomers against Streptococcus pneumoniae via inhibiting pneumococcal histidine kinase (VicK)” (Frontiers in Microbiology, 2015).
# Where two headings read alike, the source gives them in different places.
# Assays:
# S. mutans = assay: MIC against S. mutans; assay type: cell-based; details: Streptococcus mutans; S. mutans clinical isolate; 10^6 CFU/ml; read-out: MIC
# Description: (§1) Minimum inhibitory concentration (MIC) assays for the antibacterial activities of the compounds were performed according to the standard […] method of the Clinical and Laboratory Standards Institute of America. MIC testing of drug-resistant S. pneumoniae, drug-resistant S. aureus, streptococci and antimicrobial combination was also performed using the same method. Briefly, the drugs were serially diluted 2-fold into eight wells with C+Y medium, yielding final concentrations ranging from […]. Then 10^6 CFU bacteria were added to each well. Inoculated medium containing 1% DMSO served as a bacterial growth control, whereas uninoculated medium served as a sterility control. The plates were incubated at 37°C for 12–16 h. […] The experiment was repeated three times.
# [1] = tested on: Penicillin-resistant S. pneumoniae strains; assay: Checkerboard test with penicillin against penicillin-resistant S. pneumoniae; assay type: cell-based, Streptococcus pneumoniae; details: agent alone; for MIC: Streptococcus pneumoniae, read-out: MIC, Alone
# Description: as §1
# (§2) The antimicrobial effects of different combinations of two antimicrobial agents were assayed using the checkerboard test (Bajaksouzian et al., [1997]). Each experiment was repeated thrice. The in vitro interaction between the five drugs with PEN was quantified by the fractional inhibitory concentration (FIC). The FIC index (FICI) was calculated using the following formula:
# (§3) (2) FIC=FICA+FICB=[A]/MICA+[B]/MICB
# (§4) where [A] and [B] are the concentrations of drugs A and B, respectively; MICA and FICA are the MIC and FIC of drug A for the organism, respectively; and MICB, and FICB are the MIC and FIC of drug B for the organism, respectively. The FIC index obtained was interpreted as follows: =0.5, synergy; FIC > 2.0, antagonism (Gupta and Kohli, [2003]).
# S. pneumoniae = assay: Checkerboard test with erythromycin or tetracycline against S. pneumoniae; assay type: cell-based, Streptococcus pneumoniae
# Description: The antimicrobial effects of different combinations of two antimicrobial agents were assayed using the checkerboard test (Bajaksouzian et al., [1997]). Each experiment was repeated thrice. […] The FIC index (FICI) was calculated using the following formula:
# as §3, §4
# pneumococcal strains = assay: MIC against clinical pneumococcal strains (penicillin susceptible, intermediate, resistant); assay type: cell-based, Streptococcus pneumoniae; details: for MIC50 / MIC90: Streptococcus pneumoniae; for MIC50: read-out: MIC of pneumococcal strains, MIC50; for MIC90: read-out: MIC of pneumococcal strains, MIC90
# Description: as §1
# S. pyogenes = assay: MIC against S. pyogenes; assay type: cell-based; details: Streptococcus pyogenes; S. pyogenes clinical isolate; 10^6 CFU/ml; read-out: MIC
# Description: as §1
# Cytotoxicity assay (MTT) = assay type: cell-based; details: African green monkey
# Description: The cytotoxicity of the drugs to Vero cells (African green monkey kidney cells) was detected as previously described (Huang et al., [2012]) with minor modifications. In 96-well cell culture plates, the cells (~10^3 cells per well) were exposed to the serially diluted drugs for 48 h. Then, relative cell numbers were assayed by co-incubation with 3-(4, 5-dimethylthiazol-2-yl)-2, 5-diphenyltetrazolium bromide for 4 h at 37°C in 5% CO2. Purple formazan salts were dissolved with DMSO after incubation. The absorbance of each well was measured at 595 nm and then converted to percentages of the control (cells treated with 1% DMSO). The concentration of the derivatives with 50% cytotoxicity for Vero cells (CC50) was calculated using GraphPad Prism 5 (San Diego, CA).
# S. pneumoniae NCTC7466 [2] = assay: Mouse sepsis model, survival time; assay type: in vivo, BALB/c mice; details: i.p. infection 1 × 10^3 CFU; drug i.p. thrice a day for 3 d; untreated control 28.8 ± 1.25
# Description: Female BALB/c mice (12–15 per group) aged 4–6 weeks were used to evaluate the antimicrobial effects of the compounds in vivo. In sepsis models, the mice were intraperitoneally infected with 100 μL S. pneumoniae NCTC7466 strain suspension (1 × 10^3 CFU). […] Two control groups were injected with 100 μL 1% DMSO (dissolved the drugs, negative control) or PEN (0.42 mg/kg/d, positive control) following the same injection route. The result was expressed as cumulative survival times following 7 d of observation.
# S. pneumoniae NCTC7466 [3] = assay: MIC against S. pneumoniae NCTC7466 (D39); assay type: cell-based; details: Streptococcus pneumoniae, S. pneumoniae NCTC7466 (D39), read-out: MIC
# Description: as §1
# S. pseudopneumoniae = assay: MIC against S. pseudopneumoniae; assay type: cell-based; details: Streptococcus pseudopneumoniae; S. pseudopneumoniae clinical isolate; 10^6 CFU/ml; read-out: MIC
# Description: as §1
# full-length VicK protein = target: T1, full-length VicK protein (Streptococcus pneumoniae, UniProt Q8DPL8); assay: Inhibition assay for ATPase activity of VicK (Kinase-Glo Luminescent Kinase Assay); assay type: biochemical; details: 6 μg VicK, 5 μM ATP
# T1 construct: 6 His; made in house
# Description: The inhibitory activities of the Chinese medicine monomers for the ATPase activity of the full-length VicK protein were evaluated using the Kinase-Glo™Luminescent Kinase Assay (Promega, Madison, USA). Briefly, 6 μg VicK protein was pre-incubated with a series of dilution of compounds in the reaction buffer at 37°C for 30 min. 5 μM ATP was added and incubated for another 30 min. Kinase-Glo™Reagent was also added to detect the remaining ATP recorded from luminescence measurements (RLU). In parallel, the VicK protein with no addition of compounds was used as a control, and the mixture with compounds excluding the VicK protein served as another control. The rate of protein phosphorylation (Rp) inhibition by the compounds was calculated from Equation (1).
# (1) Rp=1−RLU(compound+ATP+Reagent) −RLU(compound+ATP+vick+Reagent)/RLU(ATP +Reagent)−RLU(ATP+vick+Reagent)×100%
# The half maximal inhibitory concentration (IC50), which is the concentration of inhibition of 50% VicK protein autophosphorylation, was determined by GraphPad Prism 5 (Qin et al., [2006]).
# S. mitis = assay: MIC against S. mitis; assay type: cell-based; details: Streptococcus mitis; S. mitis clinical isolate; 10^6 CFU/ml; read-out: MIC
# Description: as §1
# [4] = tested on: clinical S. pneumoniae 19A (CMCC31689); assay: Mouse colonization model, serotype 19A; assay type: in vivo, BALB/c mice; details: 19A
# Description: (§5) In colonization models, the mice were intranasally challenged by 20 μL of clinical drug-resistant strains (pneumococcal serotype 19F or 19A, 1.5 × 10^8 CFU). An hour later, the mice were intraperitoneally injected with 100 μL drugs (2 × MIC) alone or in combination with PEN (2 × MIC). These injections were continued thrice a day for 3 d. Nasal wash and lung tissues were obtained to analyze the bacteria load at 24, 48, and 72 h after drug infection. Then 100 μL aliquots of the samples diluted were plated on blood agar plates. The colonies were counted after incubation overnight at 37°C with 5% CO2.
# S. aureus = assay: Checkerboard test with penicillin against S. aureus; assay type: cell-based, Staphylococcus aureus; details: agent alone
# Description: as §1, §2, §3, §4
# [5] = tested on: clinical S. pneumoniae 19F (CMCC31693); assay: Mouse colonization model, serotype 19F; assay type: in vivo, BALB/c mice; details: 19F
# Description: as §5
# [6] = in combination with Erythromycin
# [7] = in combination with Tetracycline
# [8] = Penicillin intermediate (n = 12)
# T1 sequence (Q8DPL8 whole entry): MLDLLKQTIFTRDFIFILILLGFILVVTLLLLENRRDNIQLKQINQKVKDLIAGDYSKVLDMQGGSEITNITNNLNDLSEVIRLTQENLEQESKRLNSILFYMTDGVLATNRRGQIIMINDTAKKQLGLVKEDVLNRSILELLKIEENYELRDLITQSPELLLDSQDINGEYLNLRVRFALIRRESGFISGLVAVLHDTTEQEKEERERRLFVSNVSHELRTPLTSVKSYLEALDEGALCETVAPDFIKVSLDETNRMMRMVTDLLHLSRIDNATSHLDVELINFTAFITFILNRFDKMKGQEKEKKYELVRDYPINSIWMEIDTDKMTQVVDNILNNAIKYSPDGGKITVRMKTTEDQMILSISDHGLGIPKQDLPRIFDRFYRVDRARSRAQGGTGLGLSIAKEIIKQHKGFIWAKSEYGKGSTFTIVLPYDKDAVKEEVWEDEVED
smiles,measurement,setting,value
"CSC[C@H]1O[C@@H](n2cnc3c(N)ncnc32)[C@H](O)[C@@H]1O [Compound 1, 5′-(Methylthio)-5′-deoxyadenosine]",MIC,S. mutans,594 µg/mL
same,MIC,[1]; strain 652336,297 µg/mL
same,MIC,[1]; strain 736007,297 µg/mL
same,MIC,[1]; strain 8364981,148 µg/mL
same,MIC,[1]; strain 12092624,297 µg/mL
same,FICI,S. pneumoniae; [6],2
same,FICI,S. pneumoniae; [7],0.9
same,"MIC of pneumococcal strains, Range",pneumococcal strains; [8],74 to 594 µg/mL
same,"MIC of pneumococcal strains, Range",pneumococcal strains; Penicillin resistant (n = 15),296.8 to 593.6 µg/mL
same,"MIC of pneumococcal strains, Range",pneumococcal strains; Penicillin susceptible (n = 7),74 to 148 µg/mL
same,MIC50,pneumococcal strains; [8],148 µg/mL
same,MIC90,pneumococcal strains; [8],296 µg/mL
same,MIC50,pneumococcal strains; Penicillin resistant (n = 15),297 µg/mL
same,MIC90,pneumococcal strains; Penicillin resistant (n = 15),297 µg/mL
same,MIC50,pneumococcal strains; Penicillin susceptible (n = 7),74 µg/mL
same,MIC90,pneumococcal strains; Penicillin susceptible (n = 7),148 µg/mL
same,MIC,S. pyogenes,148 µg/mL
same,CC50 at 48 h,Cytotoxicity assay (MTT); Vero cells (African green monkey kidney cells),> 16000 µM
same,Mean survival of mice ± SEM,S. pneumoniae NCTC7466 [2],49.5 ± 3.93 h
same,MIC,S. pneumoniae NCTC7466 [3],37.1 µg/mL
same,MIC,S. pneumoniae NCTC7466 [3]; value in parentheses,124 µM
same,MIC,S. pseudopneumoniae,148 µg/mL
same,IC50,full-length VicK protein; read-out: IC50 (inhibition of VicK ATPase activity / autophosphorylation) (converted),3.8 µM
same,IC50,"full-length VicK protein; value in parentheses, read-out: IC50 (inhibition of VicK ATPase activity / autophosphorylation) (converted)",3.77 µM
same,MIC,S. mitis,148 µg/mL
"CC1(C)S[C@@H]2[C@H](NC(=O)Cc3ccccc3)C(=O)N2[C@H]1C(=O)O [Penicillin, penicillin, reference compound]","MIC, Alone",[1]; strain 652336,4.4 µg/mL
same,"MIC, Alone",[1]; strain 736007,7.1 µg/mL
same,"MIC, Alone",[1]; strain 8364981,3.56 µg/mL
same,"MIC, Alone",[1]; strain 12092624,3.56 µg/mL
same,Mean log CFU at site of infection,"[4]; Lung, 24 h, control 4.85",4.8 log CFU
same,Mean log CFU at site of infection,"[4]; Lung, 48 h, control 6.12",4.5 log CFU
same,Mean log CFU at site of infection,"[4]; Lung, 72 h, control 6.29",4.89 log CFU
same,Mean log CFU at site of infection,"[4]; NW (nasal wash), 24 h, i.p. three times a day for 3 days, control 7.29",6.44 log CFU
same,Mean log CFU at site of infection,"[4]; NW, 48 h, control 5.97",5.88 log CFU
same,Mean log CFU at site of infection,"[4]; NW, 72 h, control 6.01",5.34 log CFU
same,"MIC, Alone",S. aureus; MRSA8506305,6682 µg/mL
same,"MIC, Alone",S. aureus; MRSA8548991,3339 µg/mL
same,"MIC, Alone",S. aureus; S. aureus ATCC29213,52 µg/mL
same,Mean log CFU at site of infection,"[5]; Lung, 24 h, control 2.82",1 log CFU
same,Mean log CFU at site of infection,"[5]; Lung, 48 h, control 7.57",2.58 log CFU
same,Mean log CFU at site of infection,"[5]; Lung, 72 h, control 4.95",3.22 log CFU
same,Mean log CFU at site of infection,"[5]; NW (nasal wash), 24 h, i.p. three times a day for 3 days, control 6.72",6.21 log CFU
same,Mean log CFU at site of infection,"[5]; NW, 48 h, control 6.27",2.1 log CFU
same,Mean log CFU at site of infection,"[5]; NW, 72 h, control 7.09",6.12 log CFU
"CCCCCCCC=NNc1ccc([N+](=O)[O-])cc1[N+](=O)[O-] [Compound 2, Octanal 2,4-dinitrophenylhydrazone]",MIC,S. mutans,616 µg/mL
same,MIC,[1]; strain 652336,154 µg/mL
same,MIC,[1]; strain 736007,154 µg/mL
same,MIC,[1]; strain 8364981,77 µg/mL
same,MIC,[1]; strain 12092624,154 µg/mL
same,FICI,S. pneumoniae; [6],2
same,FICI,S. pneumoniae; [7],0.75
same,"MIC of pneumococcal strains, Range",pneumococcal strains; [8],38 to 154 µg/mL
same,"MIC of pneumococcal strains, Range",pneumococcal strains; Penicillin resistant (n = 15),77 to 616 µg/mL
same,"MIC of pneumococcal strains, Range",pneumococcal strains; Penicillin susceptible (n = 7),76 to 152 µg/mL
same,MIC50,pneumococcal strains; [8],77 µg/mL
same,MIC90,pneumococcal strains; [8],154 µg/mL
same,MIC50,pneumococcal strains; Penicillin resistant (n = 15),308 µg/mL
same,MIC90,pneumococcal strains; Penicillin resistant (n = 15),616 µg/mL
same,MIC50,pneumococcal strains; Penicillin susceptible (n = 7),152 µg/mL
same,MIC90,pneumococcal strains; Penicillin susceptible (n = 7),152 µg/mL
same,MIC,S. pyogenes,308 µg/mL
same,CC50 at 48 h,Cytotoxicity assay (MTT); Vero cells,> 4000 µM
same,Mean survival of mice ± SEM,S. pneumoniae NCTC7466 [2],42.1 ± 4.1 h
same,MIC,S. pneumoniae NCTC7466 [3],38.5 µg/mL
same,MIC,S. pneumoniae NCTC7466 [3]; value in parentheses,125 µM
same,MIC,S. pseudopneumoniae,154 µg/mL
same,IC50,full-length VicK protein; IC50 (inhibition of VicK ATPase activity / autophosphorylation),5.4 µM
same,IC50,"full-length VicK protein; IC50 (inhibition of VicK ATPase activity / autophosphorylation), value in parentheses",5.35 µM
same,MIC,S. mitis,308 µg/mL
